Assays:
Type in all cases: cell-based
[1] = system: NCI-H28 cells; experiment: Cell growth inhibition test (CellTiter-Glo), NCI-H28; conditions: Homo sapiens, NCI-H28 cell line
Protocol: (§1) The cell growth for the compounds prepared in Examples was measured by CellTiter-Glo® Luminescednt Cell Viability (Promega, Catalog #G7571) method using NCI-H226 (addexbio), NCI-H28 (Korea Cell Line Bank) cell lines. This evaluation method is a method in which when luciferase enzyme is activated by ATP flowing out from living cells, it reacts with a luciferin substrate, and the enzyme activity at this time is measured to confirm cell viability.
(§2) Specifically, NCI-H226, and NCI-H28 cells were prepared in 100 μL of cell culture medium (RPMI medium, 10% FBS, 1% P/S, 4.5 g/L D-Glucose, 2.383 g/L HEPES Buffer, L-Glutamine, 1.5 g/L Sodium Bicarbonate, 110 mg/L Sodium pyruvate) in a white clear bottom 96-well microplate. The prepared plate was incubated in a 5% CO2 incubator at 37° C. for 24 hours, and then the previously prepared compounds of Examples were finally treated at concentrations of 0.0005, 0.005, 0.05, 0.5 and 5 μM, which was repeated three times for all treatment solutions.
(§3) The plates treated with the compounds of Examples were incubated in a 5% CO2 incubator at 37° C. 100 μL/well of the substrate aqueous solution containing luciferin was added to a white clear-bottom 96 well microplate, thereby initiating an enzyme reaction. The reaction was performed at room temperature in the dark for 10 minutes, and the luminescence was measured using a Flexstation3 multi-mode microplate reader. In accordance with the instructions for the CellTiter-Glo™ Luminescednt Cell Viability, the luciferase enzyme activity, which represents the amount of ATP, was measured by a chemiluminescence method, and the inhibitory activity of the compounds according to the present disclosure was calculated. The results of each compound were analyzed using Microsoft Excel, and the IC50 values were calculated using GraphPad Prism software.

[2] = system: NCI-H226 cells; experiment: Cell growth inhibition test (CellTiter-Glo), NCI-H226; conditions: Homo sapiens, NCI-H226 cell line
Protocol: as §1, §2, §3

[3] = system: transcription factor TEAD; experiment: Activity inhibition test of transcription factor TEAD (ONE-Glo luciferase assay, Hippo Pathway TEAD reporter-MCF7 cell line); conditions: Homo sapiens; TEAD Reporter-MCF7 cells, 24 hours treatment, luciferase luminescence
Protocol: The transcription factor TEAD activity of the compounds prepared in Examples was measured by the ONE-Glo™ Luciferase assay (Promega, Catalog #E6110) method using the Hippo Pathway TEAD reporter-MCF7 recombinant cell line (BPS Bioscience, Catalog #60618).
Specifically, the TEAD Reporter-MCF7 cell line contains the firefly luciferase gene whose expression is regulated under the control of TEAD response elements in the MCF7, which is a human breast cancer cell line. In the cell line, a non-phosphorylated YAP/TAZ exists in the nucleus in a non-stressed condition, which continuously induces expression of the luciferase reporter.
TEAD Reporter-MCF7 cells were prepared in 100 μL of cell culture medium (MEM medium, 10% FBS, 1% P/S, 400 μg/mL Geneticin, 1% […], 1 mM NA pyruvate, 10 μg/mL Insulin) in a white clear bottom 96-well microplate. The prepared plate was incubated in a 5% CO2 incubator at 37° C. for 24 hours, and then the previously prepared compounds of Examples were finally treated at concentrations of 0.0005, 0.005, 0.05, 0.5 and 5 μM, which were repeated three times for all treatment solutions. The plates treated with the compounds of Examples were incubated in a 5% CO2 incubator at 37° C. for 24 hours. 100 μL/well of the substrate aqueous solution containing luciferin was added to a white clear-bottom 96 well microplate, thereby initiating an enzyme reaction. The reaction was performed at room temperature for 5 minutes, and the luminescence (integration time 1000 ms) was measured using a Flexstation3 multi-mode microplate reader. In accordance with the instructions for the ONE-Glo™ Luciferase Assay, the luciferase enzyme activity, which represents the activity of the transcription factor TEAD, was measured by a chemiluminescence method, and the inhibitory activity of the compound according to the present disclosure was calculated. The results of each compound were analyzed using Microsoft Excel, and the IC50 values were calculated by GraphPad Prism software.

IC50 [1]	IC50 [2]	IC50 [3]	SMILES
2080 nM	4.5 nM	97 nM	C=CC(=O)Nc1cc(-c2cn(C)cn2)c2[nH]c(-c3cccc(F)c3)cc2c1 [Example 42, N-(2-(3-fluorophenyl)-7-(1-methyl-1H-imidazol-4-yl)-1H-indol-5-yl)acrylamide]
438 nM	210 nM	190 nM	Cn1cnc(-c2cc(NS(C)(=O)=O)cc3cc(-c4cccc(C(F)(F)F)c4)[nH]c23)c1 [Example 19, N-(7-(1-methyl-1H-imidazol-4-yl)-2-(3-(trifluoromethyl)phenyl)-1H-indol-5-yl)methanesulfonamide]
3500 nM	22.3 nM	46 nM	C=CC(=O)Nc1cc(-c2cn(C)cn2)c2[nH]c(C3=CCCCC3)cc2c1 [Example 13, N-(2-cyclohexenyl-7-(1-methyl-1H-imidazol-4-yl)-1H-indol-5-yl)acrylamide]
2950 nM	5.3 nM	20 nM	C=CC(=O)Nc1cc(-c2cn(C)cn2)c2[nH]c(-c3ccc(F)c(F)c3)cc2c1 [Example 9, N-(2-(3,4-difluorophenyl)-7-(1-methyl-1H-imidazol-4-yl)-1H-indol-5-yl)acrylamide]
